Test results from patent publication US10844032B2, “Substituted benzofuran, benzothiophene and indole Mcl-1 inhibitors” (Vanderbilt University, priority 2012, dated 2020).

target: recombinant Mcl-1 (residues 172-327) (Homo sapiens (Human), UniProt Q07820); test: Bak peptide fluorescence polarization anisotropy competition assay, Mcl-1; type: binding; conditions: Table 2, Ki range; FITC-Bak peptide 10 nM, Mcl-1 14 nM; read-out: Ki for inhibition of Mcl-1
Sequence (Q07820 172-327): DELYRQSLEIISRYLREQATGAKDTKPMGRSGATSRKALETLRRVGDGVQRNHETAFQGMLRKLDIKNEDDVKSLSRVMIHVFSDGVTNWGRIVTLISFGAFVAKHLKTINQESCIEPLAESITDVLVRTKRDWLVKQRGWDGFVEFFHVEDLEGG

Compound | Ki
Cc1cc(OCCCc2c(C(=O)NS(=O)(=O)CCNC(=O)c3cccn3C)[nH]c3cc(Cl)ccc23)cc(C)c1Cl [Example 233, 6-chloro-3-(3-(4-chloro-3,5-dimethylphenoxy)propyl)-N-((2-(1-methyl-1H-pyrrole-2-carboxamido)ethyl)sulfonyl)-1H-indole-2-carboxamide] | ≤ 100 nM
Cc1cccc(S(=O)(=O)NC(=O)c2[nH]c3c(-c4c(CO)nn(C)c4C)cccc3c2CCCOc2cc(C)c(Cl)c(C)c2)c1 [Example 204, 3-(3-(4-chloro-3,5-dimethylphenoxy)propyl)-7-(3-(hydroxymethyl)-1,5-dimethyl-1H-pyrazol-4-yl)-N-(m-tolylsulfonyl)-1H-indole-2-carboxamide] | ≤ 100 nM
Cc1cc(OCCCc2c(C(=O)NS(=O)(=O)c3ccccc3)[nH]c3c(-c4cnn(C)c4)cccc23)cc(C)c1Cl [Example 123, 3-(3-(4-chloro-3,5-dimethylphenoxy)propyl)-7-(1-methyl-1H-pyrazol-4-yl)-N-(phenylsulfonyl)-1H-indole-2-carboxamide] | ≤ 100 nM
Cc1cc(OCCCc2c(C(=O)NS(=O)(=O)c3ccc(C(=O)O)n3C)[nH]c3cc(Cl)ccc23)cc(C)c1Cl [Example 266, 5-(N-(6-chloro-3-(3-(4-chloro-3,5-dimethylphenoxy)propyl)-1H-indole-2-carbonyl)sulfamoyl)-1-methyl-1H-pyrrole-2-carboxylic acid] | ≤ 100 nM
Cc1cc(OCCCc2c(C(=O)NS(=O)(=O)CCNC(=O)c3cc(C)n(-c4ccc(F)cc4)c3C)[nH]c3ccccc23)cc(C)c1Cl [Example 279, 3-(3-(4-chloro-3,5-dimethylphenoxy)propyl)-N-((2-(1-(4-fluorophenyl)-2,5-dimethyl-1H-pyrrole-3-carboxamido)ethyl)sulfonyl)-1H-indole-2-carboxamide] | ≤ 100 nM
COc1ccncc1-c1cccc2c(CCCOc3cc(C)c(Cl)c(C)c3)c(C(=O)NS(=O)(=O)c3ccccc3)[nH]c12 [Example 90, 3-(3-(4-chloro-3,5-dimethylphenoxy)propyl)-7-(4-methoxypyridin-3-yl)-N-(phenylsulfonyl)-1H-indole-2-carboxamide] | ≤ 100 nM

same assay, conditions: read-out: Ki for inhibition of Mcl-1

Compound | Ki
Cc1cc(OCCCc2c(C(=O)NS(=O)(=O)CCNC(=O)Cc3cn(C)c4ccccc34)[nH]c3cc(Cl)ccc23)cc(C)c1Cl [Example 235, 6-chloro-3-(3-(4-chloro-3,5-dimethylphenoxy)propyl)-N-((2-(2-(1-methyl-1H-indol-3-yl)acetamido)ethyl)sulfonyl)-1H-indole-2-carboxamide] | 101 to 299 nM
CCC(=O)NCCS(=O)(=O)NC(=O)c1[nH]c2cc(Cl)ccc2c1CCCOc1cc(C)c(Cl)c(C)c1 [Example 252, 6-chloro-3-(3-(4-chloro-3,5-dimethylphenoxy)propyl)-N-((2-propionamidoethyl)sulfonyl)-1H-indole-2-carboxamide] | 101 to 299 nM
Cc1cc(OCCCc2c(C(=O)NS(C)(=O)=O)[nH]c3cc(Cl)ccc23)cc(C)c1Cl [Example 54, 6-chloro-3-(3-(4-chloro-3,5-dimethylphenoxy)propyl)-N-(methylsulfonyl)-1H-indole-2-carboxamide] | 101 to 299 nM
Cc1cc(OCCCc2c(C(=O)NS(=O)(=O)CCN3C(=O)c4ccccc4C3=O)[nH]c3ccccc23)cc(C)c1Cl [Example 197, 3-(3-(4-chloro-3,5-dimethylphenoxy)propyl)-N-((2-(1,3-dioxoisoindolin-2-yl)ethyl)sulfonyl)-1H-indole-2-carboxamide] | 501 to 999 nM
CC(=O)NCCS(=O)(=O)NC(=O)c1[nH]c2cc(Cl)ccc2c1CCCOc1cc(C)c(Cl)c(C)c1 [Example 251, N-((2-acetamidoethyl)sulfonyl)-6-chloro-3-(3-(4-chloro-3,5-dimethylphenoxy)propyl)-1H-indole-2-carboxamide] | 101 to 299 nM
Cc1cc(OCCCc2c(C(=O)NS(=O)(=O)c3ccc(OCc4ccccc4)cc3)n(Cc3cccnc3)c3cc(Cl)ccc23)cc(C)c1Cl [Example 274, N-((4-(benzyloxy)phenyl)sulfonyl)-6-chloro-3-(3-(4-chloro-3,5-dimethylphenoxy)propyl)-1-(pyridin-3-ylmethyl)-1H-indole-2-carboxamide] | 1000 to 9990 nM
CS(=O)(=O)NC(=O)c1[nH]c2ccccc2c1CCCOc1cccc(C(F)(F)F)c1 [Example 32, N-(methylsulfonyl)-3-(3-(3-(trifluoromethyl)phenoxy)propyl)-1H-indole-2-carboxamide] | 1000 to 9990 nM
O=C(O)c1sc2ccccc2c1CCc1cccc2ccccc12 [Example 64, 3-(2-(naphthalen-1-yl)ethyl)benzo[b]thiophene-2-carboxylic acid] | 1000 to 9990 nM
Cc1cc(OCCCc2c(C(=O)NS(=O)(=O)CCNC(=O)C(F)(F)F)[nH]c3cc(Cl)ccc23)cc(C)c1Cl [Example 254, 6-chloro-3-(3-(4-chloro-3,5-dimethylphenoxy)propyl)-N-((2-(2,2,2-trifluoroacetamido)ethyl)sulfonyl)-1H-indole-2-carboxamide] | 101 to 299 nM
Cc1cc(OCCCc2c(C(=O)NS(C)(=O)=O)[nH]c3ccc(Cl)cc23)cc(C)c1Cl [Example 110, 5-chloro-3-(3-(4-chloro-3,5-dimethylphenoxy)propyl)-N-(methylsulfonyl)-1H-indole-2-carboxamide] | 501 to 999 nM
CS(=O)(=O)NC(=O)c1[nH]c2cccc(Br)c2c1CCCOc1cccc2ccccc12 [Example 115, 4-bromo-N-(methylsulfonyl)-3-(3-(naphthalen-1-yloxy)propyl)-1H-indole-2-carboxamide] | 501 to 999 nM
Cc1cc(OCCCc2c(C(=O)NS(C)(=O)=O)sc3cc(Cl)ccc23)cc(C)c1Cl [Example 72, 6-chloro-3-(3-(4-chloro-3,5-dimethylphenoxy)propyl)-N-(methylsulfonyl)benzo[b]thiophene-2-carboxamide] | 1000 to 9990 nM
Cc1cc(OCCCc2c(C(=O)NS(C)(=O)=O)[nH]c3c(C)c(Br)ccc23)cc(C)c1Cl [Example 120, 6-bromo-3-(3-(4-chloro-3,5-dimethylphenoxy)propyl)-7-methyl-N-(methylsulfonyl)-1H-indole-2-carboxamide] | 1000 to 9990 nM
CS(=O)(=O)NC(=O)c1[nH]c2cc(Cl)ccc2c1CCCOc1cccc2c1CCC2 [Example 106, 6-chloro-3-(3-((2,3-dihydro-1H-inden-4-yl)oxy)propyl)-N-(methylsulfonyl)-1H-indole-2-carboxamide] | 1000 to 9990 nM
Cc1cc(OCCCc2c(C(=O)NS(=O)(=O)CCNC(=O)c3cccn3Cc3ccccc3)n(Cc3ccccc3)c3cc(Cl)ccc23)cc(C)c1Cl [Example 278, 1-benzyl-N-((2-(1-benzyl-1H-pyrrole-2-carboxamido)ethyl)sulfonyl)-6-chloro-3-(3-(4-chloro-3,5-dimethylphenoxy)propyl)-1H-indole-2-carboxamide] | 101 to 299 nM
Cc1cc(OCCCc2c(C(=O)NS(=O)(=O)CCCN3C(=O)c4ccccc4C3=O)[nH]c3cc(Cl)ccc23)cc(C)c1Cl [Example 256, 6-chloro-3-(3-(4-chloro-3,5-dimethylphenoxy)propyl)-N-((3-(1,3-dioxoisoindolin-2-yl)propyl)sulfonyl)-1H-indole-2-carboxamide] | 501 to 999 nM
Cc1cc(OCCCc2c(C(=O)NS(=O)(=O)CCNC(=O)c3ccccc3)[nH]c3ccccc23)cc(C)c1Cl [Example 161, N-((2-benzamidoethyl)sulfonyl)-3-(3-(4-chloro-3,5-dimethylphenoxy)propyl)-1H-indole-2-carboxamide] | 301 to 500 nM
O=C(NS(=O)(=O)Cc1ccccc1)c1sc2ccccc2c1CCCOc1cccc2ccccc12 [Example 62, N-(Benzylsulfonyl)-3-(3-(naphthalen-1-yloxy)propyl)benzo[b]thiophene-2-carboxamide] | 1000 to 9990 nM
CS(=O)(=O)NC(=O)c1[nH]c2ccccc2c1CCCOc1ccc2c(c1)CCCC2 [Example 38, N-(methylsulfonyl)-3-(3-((5,6,7,8-tetrahydronaphthalen-2-yl)oxy)propyl)-1H-indole-2-carboxamide] | 1000 to 9990 nM
Cc1cc(OCCCc2c(C(=O)NS(=O)(=O)CCCNC(=O)CCc3cc(-c4ccccc4)n[nH]3)[nH]c3cc(Cl)ccc23)cc(C)c1Cl [Example 257, 6-chloro-3-(3-(4-chloro-3,5-dimethylphenoxy)propyl)-N-((3-(3-(3-phenyl-1H-pyrazol-5-yl)propanamido)propyl)sulfonyl)-1H-indole-2-carboxamide] | 301 to 500 nM
Cc1cc(OCCCc2c(C(=O)NS(=O)(=O)c3ccccc3)[nH]c3c(-c4ccncc4)cccc23)cc(C)c1Cl [Example 94, 3-(3-(4-chloro-3,5-dimethylphenoxy)propyl)-N-(phenylsulfonyl)-7-(pyridin-4-yl)-1H-indole-2-carboxamide] | 101 to 299 nM
Cc1ccccc1-c1cccc2c(CCCOc3cccc4ccccc34)c(C(=O)O)sc12 [Example 10, 3-(3-(naphthalen-1-yloxy)propyl)-7-(o-tolyl)benzo[b]thiophene-2-carboxylic acid] | 101 to 299 nM
Cc1cc(OCCCc2c(C(=O)NS(=O)(=O)CCNC(=O)c3ccc(Oc4ccccc4)cc3)[nH]c3ccccc23)cc(C)c1Cl [Example 166, 3-(3-(4-chloro-3,5-dimethylphenoxy)propyl)-N-((2-(4-phenoxybenzamido)ethyl)sulfonyl)-1H-indole-2-carboxamide] | 301 to 500 nM
Cc1occc1C(=O)NCCS(=O)(=O)NC(=O)c1[nH]c2cc(Cl)ccc2c1CCCOc1cccc2ccccc12 [Example 229, 6-chloro-N-((2-(2-methylfuran-3-carboxamido)ethyl)sulfonyl)-3-(3-(naphthalen-1-yloxy)propyl)-1H-indole-2-carboxamide] | 301 to 500 nM
Cc1cc(OCCCc2c(C(=O)NS(=O)(=O)CCNC(=O)C3CCCCC3)[nH]c3ccccc23)cc(C)c1Cl [Example 150, 3-(3-(4-chloro-3,5-dimethylphenoxy)propyl)-N-((2-(cyclohexanecarboxamido)ethyl)sulfonyl)-1H-indole-2-carboxamide] | 101 to 299 nM
Cc1cc(OCCCc2c(C(=O)NS(=O)(=O)CCNC(=O)c3cccn3Cc3cccc(F)c3)[nH]c3cc(Cl)ccc23)cc(C)c1Cl [Example 246, 6-chloro-3-(3-(4-chloro-3,5-dimethylphenoxy)propyl)-N-((2-(1-(3-fluorobenzyl)-1H-pyrrole-2-carboxamido)ethyl)sulfonyl)-1H-indole-2-carboxamide] | 101 to 299 nM
